Experimental data: patent US11793781B2, “Autoimmune disorder treatment using RXR agonists” (Io Therapeutics, Inc., priority 2011, dated 2023)

How the values were obtained:
[1] = tested on: Naive CD4+ CD25− FoxP3− cells; assay: Treg cell differentiation conditions: Foxp3 and α4β7 expression; format: cell-based, mouse
Protocol: To determine whether a RXR agonist can induce Treg cell differentiation, the ability of an RXR agonist to promote Treg cell differentiation under Treg cell differentiation conditions was assessed by monitoring Foxp3 and α4β7 expression. Naive CD4^+ CD25^− FoxP3^− cells were purified from a Foxp3-GFP mouse using flow cytometry by sorting and isolating based upon a GFP^− phenotype. These cells were then cultured under Treg cell differentiation conditions by treating the cells with αCD3 and αCD28 polyclonal antibodies in the presence of IL-2 and TGF-β. […] FIG. 1A. […] FIG. 1B.

[2] = tested on: Naive CD4+ CD25− FoxP3− cells; assay: Th17 cell differentiation conditions: Foxp3 and IL-17A expression; format: cell-based, mouse; conditions: 0, 1, 10, 100 nM, as concentration increased
Protocol: To determine whether a RXR agonist can regulate T cell differentiation, the ability of an RXR agonist to promote Treg cell differentiation and inhibit Th17 cell differentiation under Th17 cell differentiation conditions was assessed by monitoring Foxp3 and IL-17A expression. Naive CD4^+ CD25^− FoxP3^− cells were purified from a Foxp3-GFP mouse using flow cytometry by sorting and isolating based upon a GFP^− phenotype. […] See, e.g., Elias, et al., Retinoic Acid Inhibits Th17 Polarization and Enhances FoxP3 Expression through a Stat-3/Stat-5 Independent Pathway, Blood 111(3): […] (2008). […] FIG. 2A. […] FIG. 2B.

[3] = biological target: T1, RXRα (Homo sapiens, UniProt P19793); assay: RXR homodimer transactivation assay in CV-1 cells (RXRE-tk-Luc); format: cell-based; conditions: 20 hours, luciferase
T1 sequence (P19793 1-462): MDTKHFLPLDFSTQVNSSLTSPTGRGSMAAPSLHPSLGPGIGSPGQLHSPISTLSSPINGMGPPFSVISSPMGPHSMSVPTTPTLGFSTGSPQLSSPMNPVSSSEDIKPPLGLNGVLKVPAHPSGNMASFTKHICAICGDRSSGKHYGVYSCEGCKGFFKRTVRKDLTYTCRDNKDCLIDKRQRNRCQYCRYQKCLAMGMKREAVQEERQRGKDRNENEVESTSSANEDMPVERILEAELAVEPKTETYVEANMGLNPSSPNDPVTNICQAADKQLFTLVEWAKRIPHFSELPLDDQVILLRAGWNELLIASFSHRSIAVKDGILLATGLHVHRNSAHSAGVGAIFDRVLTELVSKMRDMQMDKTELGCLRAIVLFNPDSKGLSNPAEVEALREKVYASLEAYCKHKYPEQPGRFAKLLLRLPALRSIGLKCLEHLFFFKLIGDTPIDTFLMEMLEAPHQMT
From the text: For transactivation assays assessing RXR homodimer signaling, CV-1 cells were transfected with 1) an expression construct including a full length RXRα, RXRβ, or RXRγ; and 2) a rCRBPII/RXRE-tk-Luc reporter construct that included RXR homodimer-specific RXRE/DR1 responsive element linked to a luciferase gene. For transactivation assays assessing RAR/RXR heterodimer signaling, CV-1 cells were transfected with 1) an expression construct comprising a fusion protein including an estrogen receptor (ER) DNA binding domain linked to the ligand binding domain of RARα, RARβ, or RARγ and 2) a ERE-tk-Luc reporter construct that included an estrogen receptor responsive element linked to a luciferase gene. […] Data are mean values±SE from five independent experiments.

[4] = biological target: T2, RXRγ (Homo sapiens, UniProt P48443); assay: as above; format: cell-based
T2 construct: an expression construct including a full length RXRα, RXRβ, or RXRγ; expressed in transfected cells; host or cells: CV-1 cells
T2 sequence (P48443 1-463): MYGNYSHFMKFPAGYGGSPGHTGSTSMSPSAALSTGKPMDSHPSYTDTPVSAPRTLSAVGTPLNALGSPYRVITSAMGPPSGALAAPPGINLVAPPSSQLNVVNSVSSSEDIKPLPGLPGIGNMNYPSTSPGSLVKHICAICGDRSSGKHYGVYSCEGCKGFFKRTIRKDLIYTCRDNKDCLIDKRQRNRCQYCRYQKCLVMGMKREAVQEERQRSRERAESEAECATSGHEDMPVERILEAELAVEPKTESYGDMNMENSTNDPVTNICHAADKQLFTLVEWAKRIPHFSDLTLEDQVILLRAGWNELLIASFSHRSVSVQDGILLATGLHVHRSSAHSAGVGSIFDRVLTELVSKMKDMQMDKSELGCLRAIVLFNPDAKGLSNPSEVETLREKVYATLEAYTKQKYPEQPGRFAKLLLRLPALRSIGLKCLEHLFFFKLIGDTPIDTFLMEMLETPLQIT
Protocol: To determine whether a RXR agonist can mediate its effects via an RXRα receptor homodimers, RXRβ receptor homodimers, RXRγ receptor homodimers, or any combination thereof, or the corresponding RAR/RXR heterodimers, receptor-mediated transactivation assays were performed. […] Data are mean values±SE from five independent experiments.

[5] = tested on: RXRs and RARs; assay: Functional transactivation assays, RXRs compared with RARs; format: cell-based
Protocol: To determine whether a RXR agonist can mediate its effects via an RXRα receptor homodimers, RXRβ receptor homodimers, RXRγ receptor homodimers, or any combination thereof, or the corresponding RAR/RXR heterodimers, receptor-mediated transactivation assays were performed. For transactivation assays assessing RXR homodimer signaling, CV-1 cells were transfected with 1) an expression construct including a full length RXRα, RXRβ, or RXRγ; and 2) a rCRBPII/RXRE-tk-Luc reporter construct that included RXR homodimer-specific RXRE/DR1 responsive element linked to a luciferase gene. For transactivation assays assessing RAR/RXR heterodimer signaling, CV-1 cells were transfected with 1) an expression construct comprising a fusion protein including an estrogen receptor (ER) DNA binding domain linked to the ligand binding domain of RARα, RARβ, or RARγ and 2) a ERE-tk-Luc reporter construct that included an estrogen receptor responsive element linked to a luciferase gene. The ER-RAR fusion proteins provided an accurate readout of only the transfected ER-RAR. […] Data are mean values±SE from five independent experiments.

[6] = tested on: LXR/RXR; assay: Permissive RXR heterodimer transactivation; format: cell-based; conditions: appropriate receptor and reporter constructs
From the text: (§1) This difference represents >2,000-fold selectivity for RXRs over RARs in functional transactivation assays. […] FIG. 4. […] In this regard, RXR agonist 194204 is distinct from other RXR agonists.

[7] = tested on: PPAR/RXR; assay: Permissive RXR heterodimer transactivation; format: cell-based; conditions: appropriate receptor and reporter constructs
From the text: as §1

[8] = tested on: FXR/RXR; assay: Permissive RXR heterodimer transactivation; format: cell-based; conditions: appropriate receptor and reporter constructs
[9] = tested on: experimental autoimmune encephalomyelitis (EAE); assay: EAE in C57BL/6 (B6) mice (MOG peptide); format: in vivo; conditions: 50 ug i.p. every other day from day 7, FIG. 5
Protocol: Mice were also given 200 ng of pertussis toxin in PBS administered by inter-peritoneal (i.p.) injection on the same day as MOG emulsion injection (day 0) and 2 days later (day 2). […] Mice were scored using the following scale: 0—Mice have no disease, 1—Mice have distal limp tail or rear leg weakness (paresis), 1.5—Mice have distal limp tail and rear leg weakness, 2—Mice have complete limp tail and rear leg weakness, 2.5—Mice have complete limp tail and weakness in both rear legs, 3—Mice have complete limp tail and paralysis in both rear legs, 3.5—Mice have complete limp tail, paralysis in both rear legs, and forelimb weakness. Mice receiving a score of 3.5 were immediately euthanized.

[10] = tested on: CNS infiltrating leukocytes; assay: CNS infiltrating cells in EAE B6 mice (FACS); format: in vivo, C57BL/6 (B6) mice; conditions: day 20, versus vehicle control, FIG. 6
Protocol: To determine whether a RXR agonist can reduce central nervous system (CNS) infiltrating cells, C57BL/6 (B6) mice were treated as described in Example 6. On day 20 after immunization, mice were sacrificed and perfused with phosphate buffered saline (PBS). Brain and spinal cord tissue was isolated, digested with DNase and Liberase DL (Roche Diagnostics, Indianapolis, Ind.) for 30 minutes, and homogenized through 70 micron nylon mesh filters. Resulting cells were placed over a Percoll gradient to remove myelin. The remaining cells (microglia and CNS infiltrating cells) were counted, stained for molecules of interest, and run on a flow cytometer. Based on the frequencies obtained by FACS of these cell populations, total cell numbers of CNS infiltrating leukocytes expressing CD45, including CD4^+ T cells and CD11c^+ CD11b^+ myeloid dendritic cells (DC), were calculated.

[11] = tested on: experimental autoimmune encephalomyelitis (EAE); assay: EAE in SJL mice (PLP peptide); format: in vivo
Protocol: To determine whether a RXR agonist can attenuate multiple sclerosis, SJL mice were immunized to induce EAE by s.c. injection at the base of their spine with 200 uL of adjuvant containing 200 ug proteolipid proteins (139-151) (PLP peptide; Peptides International, Louisville, Ky.) and 400 ug of non-viable M. tuberculosis H37 desiccate emulsified in a mixture of incomplete Freund's adjuvant and PBS. Mice were also given 150 ng of pertussis toxin in PBS i.p. on the same day as PLP emulsion injection and 2 days later. […] Mice were scored using the scale described in Example 6.

[12] = 50 ug i.p. every other day from day 7, FIG. 7

CC(/C=C/[C@@H]1C[C@]1(C)c1ccc2c(c1)C(C)(C)CCC2(C)C)=C\C(=O)O [RXR agonist 194204, 3,7-dimethyl-6(S),7(S)-methano,7-[1,1,4,4-tetramethyl-1,2,3,4-tetrahydronaphth-7-yl]2(E),4(E) heptadienoic acid]
Foxp3+ T cells induced ([1]; Treg conditions (αCD3, αCD28, IL-2, TGF-β), concentrations of 1 nM or higher, FIG. 1A): ~100%
α4β7 expression ([1]; Treg conditions, 0.1, 1.0, 10 nM, FIG. 1B): induced expression of α4β7
Foxp3 expression ([2]; FIG. 2A): Foxp3 expression increased
IL-17A expression ([2]; FIG. 2B): IL-17A expression decreased
Efficacy (% of 1 μM 194204) RXRα [3]: 100 % of 1 μM 194204
Efficacy (% of 1 μM 194204) RXRγ [4]: 0.09 ± 0.01 100 % of 1 μM 194204
more potent in activating RXR receptors rather than RAR receptors ([5]; FIG. 4): > 1,000 fold
activity at RARs ([5]; at ≥1 μM): minimal activity
transactivation of permissive RXR heterodimer LXR/RXR [6]: not to transactivate
transactivation of permissive RXR heterodimer PPAR/RXR [7]: not to transactivate
transactivation of permissive RXR heterodimer FXR/RXR [8]: not to transactivate
symptoms of EAE (disease severity score) [9]: significantly reduces the symptoms of EAE
time course of efficacy [9]: observed after the first administration (day 7) and maintained throughout the course of the study (day 20)
infiltration of CD4+ cells into the CNS [10]: significant reduction
infiltration of CD11c+ CD11b+ cells (myeloid DC) into the CNS [10]: significant reduction
symptoms of EAE (disease severity score) [11, 12]: significantly reduces the symptoms of EAE
time course of efficacy [11, 12]: observed after the second administration (day 8) and maintained throughout the course of the study (day 14)
Disease Incidence ([11]; 50 ug i.p. every other day from day 7, mice affected/group): 4/6
Death from Disease ([11]; 50 ug i.p. every other day from day 7, mice/group): 0/6
Mean Maximum Score ([11]; 50 ug i.p. every other day from day 7, scale 0-3.5): 1.5 ± 1.4
